Measured values published in patent publication US20250154138A1, “Small Molecule IL-17A Modulators” (BeiGene, Ltd., priority 2022, published 2025).

How the values were obtained:
[1] = test system: IL-17-induced GROα secretion from HT-29 cells; test: GROα release assay in human colorectal adenocarcinoma epithelial cell (HT-29, ELISA); type: cell-based; details: Homo sapiens, HT-29, 48 h, 10 ng/mL IL-17A, highest concentration 10 μM, read-out: Cellular assay HT29 cell/CXCL1 IC50
Outline: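 HT-29 cells were exposed 48 h at 37°C to IL-17A (final 10 ng/mL) preincubated 15 min with compound (4-fold dilutions, top 10 μM). Secreted GROα was quantified by ELISA against a standard curve, and IC50 obtained by four-parameter fitting.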

[2] = target: human IL-17A / human IL-17RA (Homo sapiens (Human), UniProt Q16552); test: Human IL-17A biochemical assay (HTRF, blocking of IL-17A binding to IL-17RA); details: 0.4 nM IL-17A, 0.3 nM IL-17RA, max compound concentration 10 uM
human IL-17A / human IL-17RA, sequence (Q16552 24-155): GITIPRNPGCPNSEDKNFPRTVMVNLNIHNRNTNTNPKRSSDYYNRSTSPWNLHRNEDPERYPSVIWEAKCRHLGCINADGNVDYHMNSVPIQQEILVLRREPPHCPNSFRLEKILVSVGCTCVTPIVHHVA
Outline: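 HTRF competition: 0.4 nM recombinant human IL-17A pre-incubated 3 h at room temperature with compound (top 10 uM, 2.7-fold, 10 points) in HEPES pH 7.5 buffer, then 0.3 nM IL-17RA added for 1 h, then anti-6His-Tb/anti-human IgG-XL665 detection for 1 h.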

Structure (SMILES) | IC50 [1] | IC50 [2]
Cc1nonc1C(=O)N[C@H](C(=O)Nc1ccc2c(c1)CC(C(=O)NC(C1CC1)C1CC1)(N1C[C@@H](C(C)C)NC1=O)C2)C(C1CC1)C1CC1 (stereo partly drawn) [Example 281, N-((2S)-1,1-dicyclopropyl-3-((2-((dicyclopropylmethyl)carbamoyl)-2-((R)-4-isopropyl-2-oxoimidazolidin-1-yl)-2,3-dihydro-1H-inden-5-yl)amino)-3-oxopropan-2-yl)-4-methyl-1,2,5-oxadiazole-3-carboxamide] | 67.4 nM | 16.5 nM
Cc1nonc1C(=O)N[C@H](C(=O)Nc1ccc2c(c1)CC(C(=O)NC1CCCC1)(N1C[C@@H](C(C)C)NC1=O)C2)C(C1CC1)C1CC1 (stereo partly drawn) [Example 282, N-((2S)-1-((2-(cyclopentylcarbamoyl)-2-((R)-4-isopropyl-2-oxoimidazolidin-1-yl)-2,3-dihydro-1H-inden-5-yl)amino)-3,3-dicyclopropyl-1-oxopropan-2-yl)-4-methyl-1,2,5-oxadiazole-3-carboxamide] | 95.3 nM | 33.7 nM
Cc1nonc1C(=O)N[C@H](C(=O)Nc1ccc2c(c1)CC(C(=O)Nc1ccccc1C#N)(N1C[C@@H](C(C)C)NC1=O)C2)C(C1CC1)C1CC1 (stereo partly drawn) [Example 283, N-((2S)-1-((2-((2-cyanophenyl)carbamoyl)-2-((R)-4-isopropyl-2-oxoimidazolidin-1-yl)-2,3-dihydro-1H-inden-5-yl)amino)-3,3-dicyclopropyl-1-oxopropan-2-yl)-4-methyl-1,2,5-oxadiazole-3-carboxamide] | 34.6 nM | 32.5 nM
Cc1nonc1C(=O)N[C@H](C(=O)Nc1ccc2c(c1)CC(C(=O)Nc1ccncc1Cl)(N1C[C@@H](C(C)C)NC1=O)C2)C(C1CC1)C1CC1 (stereo partly drawn) [Example 284, N-((2S)-1-((2-((3-chloropyridin-4-yl)carbamoyl)-2-((R)-4-isopropyl-2-oxoimidazolidin-1-yl)-2,3-dihydro-1H-inden-5-yl)amino)-3,3-dicyclopropyl-1-oxopropan-2-yl)-4-methyl-1,2,5-oxadiazole-3-carboxamide] | 354 nM | 268 nM
Cc1nonc1C(=O)N[C@H](C(=O)Nc1ccc2c(c1)CC(C(=O)Nc1cncs1)(N1C[C@@H](C(C)C)NC1=O)C2)C(C1CC1)C1CC1 (stereo partly drawn) [Example 285, N-((2S)-1,1-dicyclopropyl-3-((2-((R)-4-isopropyl-2-oxoimidazolidin-1-yl)-2-(thiazol-5-ylcarbamoyl)-2,3-dihydro-1H-inden-5-yl)amino)-3-oxopropan-2-yl)-4-methyl-1,2,5-oxadiazole-3-carboxamide] | 90.2 nM | 71.4 nM
CC(C)[C@@H]1CN(CC2Cc3ccc(NC(=O)[C@@H](NC(=O)c4ccnn4C(C)C)C(C4CC4)C4CC4)cc3N2)C(=O)N1 (stereo partly drawn) [Example 286, N-((2S)-1,1-dicyclopropyl-3-((2-(((R)-4-isopropyl-2-oxoimidazolidin-1-yl)methyl)indolin-6-yl)amino)-3-oxopropan-2-yl)-1-isopropyl-1H-pyrazole-5-carboxamide] | 430 nM | 144 nM
CC(C)[C@@H]1CN(CC2Cc3ccc(NC(=O)[C@@H](NC(=O)c4ccnn4C(C)C)C(C4CC4)C4CC4)cc3N2C)C(=O)N1 (stereo partly drawn) [Example 287, N-((2S)-1,1-dicyclopropyl-3-((2-(((R)-4-isopropyl-2-oxoimidazolidin-1-yl)methyl)-1-methylindolin-6-yl)amino)-3-oxopropan-2-yl)-1-isopropyl-1H-pyrazole-5-carboxamide] | 222 nM | 61.5 nM
Cc1nonc1C(=O)N[C@H](C(=O)Nc1ccc2c(c1)CC(C(=O)Nc1ccccc1C(C)C)(N1C[C@@H](C(C)C)NC1=O)C2)C(C1CC1)C1CC1 (stereo partly drawn) [Example 288, N-((2S)-1,1-dicyclopropyl-3-((2-((R)-4-isopropyl-2-oxoimidazolidin-1-yl)-2-((2-isopropylphenyl)carbamoyl)-2,3-dihydro-1H-inden-5-yl)amino)-3-oxopropan-2-yl)-4-methyl-1,2,5-oxadiazole-3-carboxamide] | 408 nM | 110 nM
CCc1ccccc1NC(=O)C1(N2C[C@@H](C(C)C)NC2=O)Cc2ccc(NC(=O)[C@@H](NC(=O)c3nonc3C)C(C3CC3)C3CC3)cc2C1 (stereo partly drawn) [Example 289, N-((2S)-1,1-dicyclopropyl-3-((2-((2-ethylphenyl)carbamoyl)-2-((R)-4-isopropyl-2-oxoimidazolidin-1-yl)-2,3-dihydro-1H-inden-5-yl)amino)-3-oxopropan-2-yl)-4-methyl-1,2,5-oxadiazole-3-carboxamide] | 81.4 nM | 24.5 nM
Cn1nccc1C(=O)N[C@H](C(=O)Nc1ccc2c(c1)OCC(CN1CC(C(F)(F)F)NC1=O)C2)C1CCCCC1 (stereo partly drawn) [Example 291, N-((1S)-1-cyclohexyl-2-oxo-2-((3-(((S)-2-oxo-4-(trifluoromethyl)imidazolidin-1-yl)methyl)chroman-7-yl)amino)ethyl)-1-methyl-1H-pyrazole-5-carboxamide] | 1060 nM | 1550 nM
